Measured values from patent US20020137154A1, “Methods for improving cell growth and alcohol production during fermentation” (priority 2000, published 2002).

Test system: recombinant Escherichia coli KO11
Experiment: Batch fermentation of E. coli KO11 in Luria broth and xylose with nutrient additives: ethanol production and cell growth
Format: cell-based
Conditions: LB+xylose
Description: Two types of media were tested: 1% CSL and Luria broth (LB). Each contained 97 g of either xylose or glucose per liter. Luria Broth consists of, per liter: 10 g Difco® Tryptone, 5 g Difco® Yeast Extract and 5 g NaCl. The 1% CSL medium consists of Corn Steep Liquor (1% w/v) plus mineral salts (mineral salts per liter: 1 g of KH2PO4. 0.5 g of K2HPO4, 3.1 g of (NH4)2SO4, 0.4 g of MgCl2·6H2), and 20 mg FeCl3·6H2O).
Luria Broth was prepared by autoclaving a 2× nutrient stock containing, per liter: 20 g Difco® Tryptone, 10 g Difo® Yeast Extract, and 10 g NaCl. Sugars (xylose or glucose) were autoclaved separately. A 1% CSL medium was prepared as follows: Commercial Corn Steep Liquor (CSL; 50% dry weight/50% water) was diluted with tap water to make a 20X stock containing 100 g dry weight of Corn Steep Liquor/L and was adjusted to pH 7.2 with NaOH (50%). After sterilization by autoclaving, the 20X CSL stock was clarified by centrifugation at 5000×g for 10 minutes. Magnesium was added as a 100× stock solution (40 g/L MgCl2·6H2O). Iron was added as a 1000× stock solution made by dissolving 20 g FeCl3·6H2O in 175 mL of HCl and adjusting to 1 L with sterile water. Nitrogen, sulfur and phosphorus were added using a 20× stock solution containing the following (per liter): 20 g of KH2PO4, 10 g of K2HPO4 and 62 g of (NH4)2SO4. Stock solutions containing minerals were sterilized separately by autoclaving. Final media was prepared by adding 750 mL of water to 1 L bottle containing 100 g of xylose or glucose.
Inocula were grown in same media used for fermentation and were prepared as follows. Three colonies from a fresh plate were used to inoculate seed cultures: 250-mL flask containing 100 mL medium. These cultures were grown with agitation (120 rpm) for 12-16 hours at 35° C. to a final OD550nm of approximately 2.0-2.5. Cells were harvested by centrifugation at 5000×g for 5 minutes, and resuspended in fresh media to an OD550nm of 0.1. The resulting suspension was distributed into 500-mL beakers containing 345 ml each of fermentation medium. Acetaldehyde was added as indicated. Batch fermentations (35° C., 100 rpm) were maintained at pH 6.5 by the automatic addition of 2N KOH. Cell mass, ethanol, and base addition (2N KOH) were recorded during 96 hours of incubation.
Equivalent amounts of distilled water were added instead of the acetaldehyde in control experiments.
Additives (e.g., as listed in Table 1) were dissolved in 5 mL di-H2O. Solutions with pH lower than 5 were neutralized to pH 6.5 with 2N KOH. Nutritional supplements were then filter-sterilized (0.45 μm filter disk) directly into the fermentation vessel containing the culture. The final concentration of all additives in the culture medium was 2 g/L unless otherwise indicated.
Cell mass was estimated by measuring OD550nm using Baush & Lomb® Spectronic 70 spectrophotometer. […] Ethanol was measured by gas chromatography using a Varian® 3400 CX gas chromatograph with 1-propanol as an internal standard.
Tables 1, 3, and 5 show time to completion of fermentation, ethanol production, and volumetric productivity of the fermentation for all concentrations of the compound and the control. Maximum ethanol production is shown in grams/liter (g/L). The ethanol yield is shown in grams of ethanol/grams of added sugar. Maximum volumetric productivity is shown in grams ethanol/(liter)(hour). The average productivity is calculated form the start of fermentation to the completion of fermentation is grams ethanol/(liter)hour).
Tables 2, 4, and 6 show the initial growth of the cells (OD taken after the first 24 hours of fermentation) and the maximum cell density (the time which culture reaches the maximum OD value).
Acetaldehyde was added to the fermentation medium at five different concentrations and time points. […] Where two additions are indicated, the first volume was added at the start of fermentation and the second was added after 8 hours of fermentation.

`CC=O` [Acetaldehyde, acetaldehyde] was tested, and the “Ethanol Production Maximum” value (0.25 g/L at start) was 43.80 g/L, the “Ethanol Production Maximum % Control” value (0.25 g/L at start) was 101.68% and the Ethanol yield (0.25 g/L at start) was 0.451 grams of ethanol/grams of added sugar. The “Initial Growth (OD at 24 h) % Control” value (0.25 g/L at start) was 110.79%, the “Initial Growth (OD at 24 h) OD” value (0.25 g/L at start) was 11.07 OD and the “Maximum Cell Density % Control” value (0.25 g/L at start) was 100.20%. For the same molecule, the “Maximum Cell Density OD” value (0.25 g/L at start) was 11.07 OD, the “Maximum Cell Density Time” value (0.25 g/L at start) was 24 h and the Time to completion (0.25 g/L at start) was 48 h. For the same molecule, the “Volumetric Productivity Average” value (0.25 g/L at start) was 0.913 grams ethanol/(liter)(hour), the “Volumetric Productivity Average % Control” value (0.25 g/L at start) was 101.68% and the “Volumetric Productivity Maximum” value (0.25 g/L at start) was 1.352 grams ethanol/(liter)(hour). For the same molecule, the “Volumetric Productivity Maximum % Control” value (0.25 g/L at start) was 117.36%, the “Ethanol Production Maximum” value (0.5 + 0.25 g/L (start, 8 h)) was 41.40 g/L and the “Ethanol Production Maximum % Control” value (0.5 + 0.25 g/L (start, 8 h)) was 96.11%. For the same molecule, the Ethanol yield (0.5 + 0.25 g/L (start, 8 h)) was 0.426 grams of ethanol/grams of added sugar, the “Initial Growth (OD at 24 h) % Control” value (0.5 + 0.25 g/L (start, 8 h)) was 99.02% and the “Initial Growth (OD at 24 h) OD” value (0.5 + 0.25 g/L (start, 8 h)) was 9.89 OD. The “Maximum Cell Density % Control” value (0.5 + 0.25 g/L (start, 8 h)) was 97.92%, the “Maximum Cell Density OD” value (0.5 + 0.25 g/L (start, 8 h)) was 10.81 OD and the “Maximum Cell Density Time” value (0.5 + 0.25 g/L (start, 8 h)) was 48 h. The Time to completion (0.5 + 0.25 g/L (start, 8 h)) was 48 h, the “Volumetric Productivity Average” value (0.5 + 0.25 g/L (start, 8 h)) was 0.863 grams ethanol/(liter)(hour) and the “Volumetric Productivity Average % Control” value (0.5 + 0.25 g/L (start, 8 h)) was 96.11%. The “Volumetric Productivity Maximum” value (0.5 + 0.25 g/L (start, 8 h)) was 0.904 grams ethanol/(liter)(hour), the “Volumetric Productivity Maximum % Control” value (0.5 + 0.25 g/L (start, 8 h)) was 78.52% and the “Ethanol Production Maximum” value (0.5 + 0.5 g/L (start, 8 h)) was 41.64 g/L. For the same molecule, the “Ethanol Production Maximum % Control” value (0.5 + 0.5 g/L (start, 8 h)) was 96.65%, the Ethanol yield (0.5 + 0.5 g/L (start, 8 h)) was 0.429 grams of ethanol/grams of added sugar and the “Initial Growth (OD at 24 h) % Control” value (0.5 + 0.5 g/L (start, 8 h)) was 106.98%. The “Initial Growth (OD at 24 h) OD” value (0.5 + 0.5 g/L (start, 8 h)) was 10.68 OD, the “Maximum Cell Density % Control” value (0.5 + 0.5 g/L (start, 8 h)) was 106.68% and the “Maximum Cell Density OD” value (0.5 + 0.5 g/L (start, 8 h)) was 11.78 OD. The “Maximum Cell Density Time” value (0.5 + 0.5 g/L (start, 8 h)) was 48 h, the Time to completion (0.5 + 0.5 g/L (start, 8 h)) was 48 h and the “Volumetric Productivity Average” value (0.5 + 0.5 g/L (start, 8 h)) was 0.867 grams ethanol/(liter)(hour). The “Volumetric Productivity Average % Control” value (0.5 + 0.5 g/L (start, 8 h)) was 96.65%, the “Volumetric Productivity Maximum” value (0.5 + 0.5 g/L (start, 8 h)) was 0.890 grams ethanol/(liter)(hour) and the “Volumetric Productivity Maximum % Control” value (0.5 + 0.5 g/L (start, 8 h)) was 77.26%. The “Ethanol Production Maximum” value (0.5 g/L at start) was 42.59 g/L, the “Ethanol Production Maximum % Control” value (0.5 g/L at start) was 98.88% and the Ethanol yield (0.5 g/L at start) was 0.438 grams of ethanol/grams of added sugar. For the same molecule, the “Initial Growth (OD at 24 h) % Control” value (0.5 g/L at start) was 108.77%, the “Initial Growth (OD at 24 h) OD” value (0.5 g/L at start) was 10.86 OD and the “Maximum Cell Density % Control” value (0.5 g/L at start) was 107.97%. For the same molecule, the “Maximum Cell Density OD” value (0.5 g/L at start) was 11.92 OD, the “Maximum Cell Density Time” value (0.5 g/L at start) was 48 h and the Time to completion (0.5 g/L at start) was 48 h. The “Volumetric Productivity Average” value (0.5 g/L at start) was 0.887 grams ethanol/(liter)(hour), the “Volumetric Productivity Average % Control” value (0.5 g/L at start) was 98.88% and the “Volumetric Productivity Maximum” value (0.5 g/L at start) was 1.027 grams ethanol/(liter)(hour). The “Volumetric Productivity Maximum % Control” value (0.5 g/L at start) was 89.20%, the “ethanol production as compared to the control” value (0.5 g/L at the start) was “highest amount of ethanol production” and the “initial growth and maximum cell density as compared to the control” value (0.5 g/L at the start) was “greatest initial growth and maximum cell density”. The “Ethanol Production Maximum” value (0.75 g/L at start) was 42.65 g/L, the “Ethanol Production Maximum % Control” value (0.75 g/L at start) was 99.00% and the Ethanol yield (0.75 g/L at start) was 0.439 grams of ethanol/grams of added sugar. The “Initial Growth (OD at 24 h) % Control” value (0.75 g/L at start) was 105.54%, the “Initial Growth (OD at 24 h) OD” value (0.75 g/L at start) was 10.54 OD and the “Maximum Cell Density % Control” value (0.75 g/L at start) was 110.94%. The “Maximum Cell Density OD” value (0.75 g/L at start) was 12.25 OD, the “Maximum Cell Density Time” value (0.75 g/L at start) was 48 h and the Time to completion (0.75 g/L at start) was 48 h. The “Volumetric Productivity Average” value (0.75 g/L at start) was 0.889 grams ethanol/(liter)(hour), the “Volumetric Productivity Average % Control” value (0.75 g/L at start) was 99.00% and the “Volumetric Productivity Maximum” value (0.75 g/L at start) was 0.916 grams ethanol/(liter)(hour). For the same molecule, the “Volumetric Productivity Maximum % Control” value (0.75 g/L at start) was 79.50%.
